Experimental data from patent US20100184675A1, “USE OF GLUCAGON (1-29) ALONE OR IN COMBINATION WITH NEUROPEPTIDE W30 AS A THERAPEUTIC AGENT” (priority 2007, published 2010).
Ends that are not written are not given here.

What was measured:
[1] = test system: HIV-1IIIB; assay: HIV-1 antiviral assay in CEM-SS cells; conditions: peptides 10 micrograms per ml, 6 days post-infection
[2] = test system: HCMV strain AD169; assay: HCMV plaque formation assay in MRC-5 cells; conditions: peptides 10 micrograms per ml, 7-10 days
[3] = test system: hepatitis B virus (HBV) ayw strain; assay: HBV experimental assay system (HepG2-2.2.15, secreted HBV DNA by TaqMan PCR); assay type: cell-based; conditions: 10 micrograms per ml; 6 days; combination 0.95 mole peptide 1 and 1.05 mole peptide 2
Description: HepG2-2.2.15 cells were plated in 96-well microtiter plates. After 16-24 hours the confluent monolayer of HepG2-2.2.15 cells was washed and the medium was replaced with complete medium containing test peptides—10 micrograms per ml—in duplicate. Lamivudine (3TC) was used as the positive control, while media alone was added to the cells as a negative control (virus control). Three days later the culture medium was replaced with fresh medium containing the peptides. Six days following the initial administration of the peptides, the cell culture supernatants was collected, treated with pronase and DNAse and then used in a real-time quantitative TaqMan PCR assay. The PCR-amplified HBV DNA was detected in real-time by monitoring increases in fluorescence signals that result from the exonucleolytic degradation of a quenched fluorescence probe molecule that hybridizes to the amplified HBV DNA. For each PCR amplification, a standard curve was simultaneously generated using dilutions of purified HBV DNA. Antiviral activity was calculated from the reduction in HBV DNA levels (% virus control). A novel dye uptake assay was then employed to measure cell viability, which is used to calculate toxicity (% cell control).

[4] = test system: murine spleen cells; assay: Th1/Th2 cytokine profiling assay (Ovalbumin-restimulated spleen cells); assay type: cell-based, Balb/c mice; conditions: 10 micrograms per ml; 72 hours; combination 0.95 mole peptide 1 and 1.05 mole peptide 2
Description: On day 50, spleens of the mice were harvested (3 weeks after last boost with Ovalbumin). Cells were cultured (2×10^5/well in triplicate) and incubated with culture medium or test peptides—10 micrograms per ml—for 30 min. Thereafter, additional Ovalbumin was added to the cells at 10 micrograms/ml for in vitro restimulation of the cells. 72 hours later, cell supernatants were harvested and assayed using the Becton Dickinson Mouse Th1/Th2 Cytokine CBA Kit.

[5] = test system: Primary Human endothelial cells (HUVEC); assay: Endothelial cell migration assay; assay type: cell-based; conditions: 10 micrograms per ml; 22 hours
[6] = test system: HUVEC; assay: Endothelial tube formation assay; assay type: cell-based, human; conditions: 10 micrograms per ml; 20 hours
Description: The endothelial tube formation assay is based on the ability of endothelial cells to form three-dimensional capillary-like tubular structures when cultured on a gel of basement membrane extract. […] Pre-labeled HUVEC with Calcein AM were seeded in a 96-well culture plate coated with extracellular metrix (Chemicon international Cat. […] Positive control was vehicle only. […] Duplicate wells for each treatment were photographed and quantitatevily analyzed for an average tubule length using image analysis software ImageProPlus. Raw data were expressed as average tubule lengths in pixels ±standard deviation. Statistic p values were computed using the Student's t-test.

Cc1cn([C@H]2C[C@H](N=[N+]=[N-])[C@@H](CO)O2)c(=O)[nH]c1=O [AZT]
inhibition of HIV-1 activity on tested T-cells [1]: expected levels of antiviral activity

Nc1nc(O)c2ncn(COC(CO)CO)c2n1 [Ganciclovir, reference compound]
inhibition of HCMV plaque formation as compared to the virus control [2]: expected levels of antiviral activity

CC(C)(C)NC(=O)[C@@H]1CN(Cc2cccnc2)CCN1C[C@@H](O)C[C@@H](Cc1ccccc1)C(=O)N[C@H]1c2ccccc2C[C@H]1O [indinavir]
inhibition of HIV-1 activity on tested T-cells [1]: expected levels of antiviral activity

Trp-Tyr-Lys-His-Val-Ala-Ser-Pro-Arg-Tyr-His-Thr-Val-Gly-Arg-Ala-Ala-Gly-Leu-Leu-Met-Gly-Leu-Arg-Arg-Ser-Pro-Tyr-Leu-Trp-OH (WYKHVASPRYHTVGRAAGLLMGLRRSPYLW-OH) [Peptide 2]
inhibition of HBV replication as compared to the virus control infection [3]: 10.7%
change of the production of IFN-γ (figure = decreased by) [4]: 25.5%
change of the production of IL-2 (figures = increased by) [4]: 82.1%
change of the production of IL-4 (figure = induced by) [4]: did not significantly change
change of the production of IL-5 (figures = decreased by) [4]: 29.3%
change of the production of TNF-alpha [4]: did not significantly change
inhibition of the migration of human endothelial cells [5]: 17%
inhibition of the tube formation of human endothelial cells [6]: 16%
inhibition of HCMV plaque formation as compared to the virus control [2]: did not inhibit
